US9988626B2, “Neurocalcin delta inhibitors and therapeutic and non-therapeutic uses thereof” (Universität Zu Köln, priority 2013, dated 2018)
“Also recorded” adds a separate entry of the source.

Assays:
zebrafish larvae = experiment: Endocytosis inhibitor treatment of zebrafish, motor axon phenotype; type: in vivo
Description: The in vivo effect of inhibition of endocytosis on MN outgrowth was investigated by the use of the pharmacological inhibitors Pitstop2 and Dynasore (both Abcam) in the SMA zebrafish model. Motor axons of treated zebrafish larvae were analyzed by fluorescence microscopy. For immunohistochemistry, zebrafish were manually dechorionated and fixed in 4% PFA-PBS at 34 hours post fertilization. To permeabilize the larvae for the following antibody staining, collagenase digest of the whole animal was performed. To visualize the primary motor axons, fish were incubated at 4° C. over night in 500 μl PBS-T/1% DMSO/10% FCS containing znp-1 antibody (1:300, Hybridoma Bank). Fish were stained in PBS-T/1% DMSO/10% FCS containing secondary donkey anti-mouse antibody labelled with Alexafluor 488 (1:200, Invitrogen) after all-day washing in PBS-T/1% FCS/1% BSA (changing solution every hour). After repeated washing in PBS-T and PBS, fish were stored in 80% glycerol/20% PBS in the dark at 4° C. Labelled fish were embedded in low-melting agarose micro slides and analysed using a fluorescence microscope (AxioImager M2, Zeiss). The structure of each of the first ten motor axons posterior to the yolk was analysed, rated as: 1) normal, 2) truncated (truncation ventral from midline), 3) severely truncated (shorter than midline), 4) branched I (branching ventral from midline), 5) branched II (branching at midline), or 6) branched BI (branching dorsal from midline) and statistically evaluated using Excel (Microsoft). Dynasore (dynamin inhibitor) and Pitstop2 (clathrin inhibitor) (both Abcam) were dissolved as stock solution (50 mM) in DMSO and stored at −20° C. Zebrafish were treated with the respective concentrations starting at 16 hpf. To do so, fish were dechorionated and substance was added to the embryo medium. Fish larvae were incubated at 28° C. in an incubator on a rocking platform (20 rpm) until fixed in PBS-PFA at 34 hpf. Subsequently fish were stained with znp-1 antibody, as described above.

NSC34 cells = experiment: FITC-dextran endocytosis assay of NSC34 cells treated with Ionomycin; type: cell-based, mouse; conditions: presence vs absence of Ionomycin, n=50
Description: To unravel differences in endocytosis performance, cells (fibroblasts and NSC34) were starved and subsequently incubated with FITC-dextran. FITC-uptake after respective incubation times was quantified either by microscopic analysis or by FACS.
One day before the measurement, some 15,000 fibroblasts per well (4-well EZ slides, Millipore) were plated out in 500 μl normal DMEM growth medium (Invitrogen). Cells were starved for 10 minutes in starvation media (DMEM transparent (HEPES), 2% FKS) at 37° C. For endocytosis, cells were treated with FITC dextran solution (5 mg/ml FITC-dextran in starvation medium) for respective time period at 37° C. Subsequently, medium was removed and cells were washed three times with ice-cold PBS on ice and fixed in 4% paraformaldehyde for ten minutes. After subsequent washing (2 times in PBS) cells were stained with Alexafluor 568 phalloidin (Invitrogen, 2 hours at 4° C.). Then, after washing cells were stained with DAPI and mounted with Mowiol (Sigma). Finally, FITC fluorescence was monitored at the fluorescence microscope (Axiolmager M2, Zeiss) and quantified using the Zen software (Zeiss) and evaluated with Excel (Microsoft).

Ncald = experiment: Knockdown efficiency of shRNA constructs in NSC34 cells (qRT-PCR of Ncald levels); type: cell-based, mouse; conditions: transient transfection of NSC34 cells, 72 h
Description: Before starting the cloning of the targeting construct for the mouse generation, we constructed and tested five individual shRNA elements targeting the Ncald gene. To do so, we transiently transfected five different shRNA-Ncald constructs in murine NSC34 cells and analysed the knockdown efficiency after 72 h. […] For further testing, we cloned selected shRNA sequences into the vector pEx-H1tetO-CAG-tetR carrying all necessary elements of the tetO/R system which allow later induction of the shRNA-expression by administration of doxycycline (Dox) (Kleinhammer et al. 2011). Currently, after we could verify the dox-inducible capability of two shRNA constructs to knockdown Ncald, we are producing stable murine embryonic cell lines (ES cells) to subsequently generate two individual transgenic mouse strains containing inducible Ncald knockdown vectors. These mice will later be crossed on SMA background to investigate the protective ability of Ncald downregulation.
The knockdown efficiency of five individual shRNA sequences was tested by qRT-PCR-based quantification of Ncald levels, 72 h after knockdown using different shRNA sequences. Transient transfection of NSC34 cells. The respective sequences are those of SEQ ID NO: 15-19 as shown above.

O=C(N/N=C/c1ccc(O)c(O)c1)c1cc2ccccc2cc1O [Dynasore]
Motor axon truncation, inhibitor alone or with low smn MO (zebrafish larvae; Dynasore alone or in combination with low smn MO): SMA-like axonal truncations

C[C@H](CCC(=O)O)C[C@H](C)C[C@H](C)C(=O)/C=C(\O)[C@H](C)C[C@H](C)C/C=C/[C@@H](C)[C@@H](O)[C@@H](C)[C@@H](O)C[C@@H]1CC[C@@](C)([C@H]2CC[C@@](C)([C@@H](C)O)O2)O1 [Ionomycin]
Endocytosis (FITC-dextran) (NSC34 cells): significant increase in endocytosis; also recorded: significantly increased endocytosis

O=C1NC(=NS(=O)(=O)c2cccc3ccccc23)S/C1=C\c1ccc(Br)cc1 [Pitstop2]
Motor axon truncation, inhibitor in combination with smn MO (zebrafish larvae; subphenotypical smn MO (2 ng) plus Pitstop2): significant elevation in the number of truncated motor axons | Motor axon truncation, inhibitor in combination with smn MO (zebrafish larvae; subphenotypical smn MO (2 ng) plus Pitstop2, listed as Pitstop): synergistic effect

shRNA #4: shRNA knocking down mouse NCALD, one of five of SEQ ID NO: 15-19 (DNA CCGGCGCCAGATGGATACCAATAGACTGGAGTCTATTGGTATCCATCTGGCGTTTTTG)
Knockdown efficacy of Ncald (Ncald): sufficient knockdown efficacy

shRNA #5: shRNA knocking down mouse NCALD, one of five of SEQ ID NO: 15-19 (DNA CCGGGCTTCCAAATTTGCAGAGCATCTGGAGATGCTCTGCAAATTTGGAAGCTTTTTG)
Knockdown efficacy of Ncald (Ncald): sufficient knockdown efficacy
